This experiment addresses T1, HIV integrase (Human immunodeficiency virus type 1 group M subtype B, UniProt P12497, F1332H).
T1 construct: HIV integrase full length gene; made in house; host or cells: Escherichia coli BL21(DE3), plasmid pET21a-INH
Briefly: Determination of enzyme (HIV integrase) inhibitory activity. The conditions noted are these: recombinant HIV integrase (F185H), strand transfer ELISA, absorbance at 450 nm. It counts as biochemical. An excerpt: The following explains evaluation methods of the HIV integrase inhibitory activity of the compound of the present invention.
(i) Construction of Recombinant Integrase Gene Expression System
The 185th phenylalanine of HIV integrase full length gene (J. Virol., 67, 425–437 (1993)) was substituted by histidine and inserted into the restriction enzyme NdeI and XhoI sites of plasmid pET21a(+) (Novagen), whereby an integrase expression vector pET21a-INH was constructed.
(ii) Production and Purification of Integrase Protein
Escherichia coli recombinant BL21(DE3) transformed with plasmid pET21a-INH obtained in (i) was shake cultured at 37° C. in a liquid medium containing ampicillin. When the culture reached the logarithmic growth phase, isopropyl-β-D-thiogalactopyranoside was added to promote expression of integrase gene. The culture was continued for 3 hr to promote accumulation of the integrase protein. The recombinant E. coli was collected in pellets by centrifugal separation and preserved at −80° C.
The E. coli was suspended in Lysis buffer (20 mM HEPES (pH 7.5), 5 mM DTT, 10 mM CHAPS, 10% glycerol) containing 1M sodium chloride and subjected to repeat pressurization and depressurization for rupture, and centrifugal separation at 4° C., 40,000×g, 60 min to recover a water-soluble fraction (supernatant). This was diluted 10-fold with Lysis buffer free of sodium chloride, mixed with SP-Sepharose (Pharmacia Corporation) and stirred at 4° C. for 30 min to allow adsorption of integrase protein to the resin. The resin was washed with Lysis buffer containing 100 mM sodium chloride and the integrase protein was eluted with Lysis buffer containing 1M sodium chloride.
The eluted integrase protein solution was applied to a Superdex 75 (Pharmacia Corporation) column for gel filtration. The protein was eluted with Lysis buffer containing 1M sodium chloride.
The obtained fractions of the integrase protein were collected and preserved at −80° C.
(iii) Preparation of DNA Solution
The following DNA synthesized by Greiner was dissolved in TE buffer (10 mM Tris-hydrochloric acid (pH 8.0), 1 mM EDTA) and mixed with donor DNA, target DNA, and each complementary strand (+ and − strands) to 1 μM. The mixture was heated at 95° C. for 5 min, 80° C. for 10 min, 70° C. for 10 min, 60° C. for 10 min, 50° C. for 10 min and 40° C. for 10 min and preserved at 25° C. to give a double stranded DNA, which was used for the test.
Donor DNA (− strand having biotin attached to the 5′ terminal)
(iv) Determination of Enzyme (HIV Integrase) Inhibitory Activity
The donor DNA was diluted with TE buffer to 10 nM, of which 50 μl was added to each well of streptavidin-coated microtiter plate (Roche) and allowed to adsorb at 37° C. for 60 min. The DNA was washed with phosphate buffer (Dulbecco PBS, Sanko Junyaku Co., Ltd.) containing 0.1% Tween 20 and phosphate buffer. Then, a reaction mixture (70 μl) having the following composition, a test substance (10 μl) diluted with the reaction mixture and 100 μg/ml integrase protein (10 μl) were added to each well and reacted at 37° C. for 60 min.
Composition of the reaction mixture: 30 mM MOPS (3-morpholinopropanesulfonic acid), 5 mM magnesium chloride, 3 mM DTT (dithiothreitol), 0.1 mg/ml BSA (bovine serum albumin), 5% glycerol, 10% DMSO (dimethyl sulfoxide), 0.01% Tween 20.
Then, 50 nM target DNA (10 μl) was added, reacted at 37° C. for 10 min and washed with phosphate buffer containing 0.1% Tween 20 to stop the reaction.
Then, 100 mU/ml peroxidase labeled anti-digoxigenin antibody solution (Roche, 100 μl) was added, and the mixture was reacted at 30° C. for 60 min, followed by washing with phosphate buffer containing 0.1% Tween 20.
A peroxidase color solution (Bio Rad, 100 μl) was added and allowed to react at room temperature for 4 min. The color reaction was stopped by adding 1N sulfuric acid (100 μl). The absorbance at 450 nm was measured. […]
(In general: ELISA stands for enzyme-linked immunosorbent assay.)

Structures are written as SMILES. Where a name gives a salt, the structure may show the parent alone. A value given as a limit tells only on which side of the number the result lay.

As for `O=C1c2c(O)c(=O)ccn2CCN1Cc1ccc(Cl)c(Cl)c1` [Example 1, 2-(3,4-dichlorobenzyl)-9-hydroxy-3,4-dihydro-2H-pyrido[1,2-a]pyrazine-1,8-dione hydrochloride], the half-inhibitory concentration (IC50) (in general, the concentration that inhibits the measured activity by half) was below 10 nM. As for `CC1Cn2ccc(=O)c(O)c2C(=O)N1Cc1ccc(Cl)c(Cl)c1` (stereo not drawn) [Example 3, 2-(3,4-dichlorobenzyl)-9-hydroxy-3-methyl-3,4-dihydro-2H-pyrido[1,2-a]pyrazine-1,8-dione], the figure is 10 to 100 nM.

Consider `CC1(C)CN(Cc2ccc(Cl)c(Cl)c2)C(=O)c2c(O)c(=O)ccn21` [Example 4, 2-(3,4-dichlorobenzyl)-9-hydroxy-4,4-dimethyl-3,4-dihydro-2H-pyrido[1,2-a]pyrazine-1,8-dione], for which the IC50 is 10 to 100 nM.

As to `O=C1c2c(O)c(=O)cc(CO)n2CCN1Cc1ccc(Cl)c(Cl)c1` [Example 5, 2-(3,4-dichlorobenzyl)-9-hydroxy-6-hydroxymethyl-3,4-dihydro-2H-pyrido[1,2-a]pyrazine-1,8-dione], the 50% inhibitory concentration (IC50) fell in the range of 10 to 100 nM.

Consider `O=C(O)c1cc(=O)c(O)c2n1CCN(Cc1ccc(Cl)c(Cl)c1)C2=O` [Example 6, 2-(3,4-dichlorobenzyl)-9-hydroxy-1,8-dioxo-1,3,4,8-tetrahydro-2H-pyrido[1,2-a]pyrazine-6-carboxylic acid], for which the 50% inhibitory concentration (IC50) lay within 10 to 100 nM. To `CC(C)(C)C(=O)c1cc(=O)c(O)c2n1CCN(Cc1ccc(Cl)c(Cl)c1)C2=O` [Example 7, 2-(3,4-dichlorobenzyl)-6-(2,2-dimethylpropionyl)-9-hydroxy-3,4-dihydro-2H-pyrido[1,2-a]pyrazine-1,8-dione] belongs below 10 nM. To `O=c1ccn2ccn(Cc3ccc(Cl)c(Cl)c3)c(=O)c2c1O` [Example 8, 2-(3,4-dichlorobenzyl)-9-hydroxy-2H-pyrido[1,2-a]pyrazine-1,8-dione] belongs below 10 nM; to `Cc1cn2ccc(=O)c(O)c2c(=O)n1Cc1ccc(Cl)c(Cl)c1` [Example 9, 2-(3,4-dichlorobenzyl)-9-hydroxy-3-methyl-2H-pyrido[1,2-a]pyrazine-1,8-dione], 10 to 100 nM; to `CC(C)c1cn(Cc2cccc(Cl)c2)c(=O)c2c(O)c(=O)ccn12` [Example 10, 2-(3-chlorobenzyl)-9-hydroxy-4-isopropyl-2H-pyrido[1,2-a]pyrazine-1,8-dione hydrochloride], 10 to 100 nM. To `O=c1ccn2ccn(CCCc3c(Cl)cccc3Cl)c(=O)c2c1O` [Example 11, 2-[3-(2,6-dichlorophenyl)propyl]-9-hydroxy-2H-pyrido[1,2-a]pyrazine-1,8-dione] belongs below 10 nM. On to `O=c1ncn2ccn(Cc3ccc(Cl)c(Cl)c3)c(=O)c2c1O` [Example 12, 2-(3,4-dichlorobenzyl)-9-hydroxy-2H-pyrazino[1,2-a]pyrimidine-1,8-dione hydrochloride], for which the IC50 lay within 10 to 100 nM. As for `CC1CN(Cc2ccc(Cl)c(Cl)c2)C(=O)c2c(O)c(=O)ccn21` (stereo not drawn) [Example 13, 2-(3,4-dichlorobenzyl)-9-hydroxy-4-methyl-3,4-dihydro-2H-pyrido[1,2-a]pyrazine-1,8-dione], the figure is 10 to 100 nM; as for `O=C1c2c(O)c(=O)ccn2C(Cc2ccccc2)CN1Cc1ccc(Cl)c(Cl)c1` (stereo not drawn) [Example 14, 4-benzyl-2-(3,4-dichlorobenzyl)-9-hydroxy-3,4-dihydro-2H-pyrido[1,2-a]pyrazine-1,8-dione], 10 to 100 nM; as for `O=C1c2c(O)c(=O)ccn2C(c2ccccc2)CN1Cc1ccc(Cl)c(Cl)c1` (stereo not drawn) [Example 15, 2-(3,4-dichlorobenzyl)-9-hydroxy-4-phenyl-3,4-dihydro-2H-pyrido[1,2-a]pyrazine-1,8-dione], 10 to 100 nM. As for `CCCCC1CN(Cc2ccc(Cl)c(Cl)c2)C(=O)c2c(O)c(=O)ccn21` (stereo not drawn) [Example 16, 4-butyl-2-(3,4-dichlorobenzyl)-9-hydroxy-3,4-dihydro-2H-pyrido[1,2-a]pyrazine-1,8-dione], the figure is 10 to 100 nM. As for `CC(C)C1CN(Cc2ccc(Cl)c(Cl)c2)C(=O)c2c(O)c(=O)ccn21` (stereo not drawn) [Example 17, 2-(3,4-dichlorobenzyl)-9-hydroxy-4-isopropyl-3,4-dihydro-2H-pyrido[1,2-a]pyrazine-1,8-dione], the figure is 10 to 100 nM. In the case of `CC1(C)Cn2ccc(=O)c(O)c2C(=O)N1Cc1ccc(Cl)c(Cl)c1` [Example 18, 2-(3,4-dichlorobenzyl)-9-hydroxy-3,3-dimethyl-3,4-dihydro-2H-pyrido[1,2-a]pyrazine-1,8-dione], the IC50 is 10 to 100 nM. As for `O=C1c2c(O)c(=O)ccn2C2(CCCC2)CN1Cc1ccc(Cl)c(Cl)c1` [Example 19, 2-(3,4-dichlorobenzyl)-9-hydroxy-3,4-dihydro-2H-pyrido[1,2-a]pyrazine-4-spiro-1′-cyclopentane-1,8-dione], the figure is 10 to 100 nM. As for `O=C1c2c(O)c(=O)ccn2C2(CCCCC2)CN1Cc1ccc(Cl)c(Cl)c1` [Example 20, 2-(3,4-dichlorobenzyl)-9-hydroxy-3,4-dihydro-2H-pyrido[1,2-a]pyrazine-4-spiro-1′-cyclohexane-1,8-dione], the figure is 10 to 100 nM; as for `COC(=O)C1CN(Cc2ccc(Cl)c(Cl)c2)C(=O)c2c(O)c(=O)ccn21` (stereo not drawn) [Example 21, methyl 2-(3,4-dichlorobenzyl)-9-hydroxy-1,8-dioxo-1,3,4,8-tetrahydro-2H-pyrido[1,2-a]pyrazine-4-carboxylate], 10 to 100 nM; as for `O=C(O)C1CN(Cc2ccc(Cl)c(Cl)c2)C(=O)c2c(O)c(=O)ccn21` (stereo not drawn) [Example 22, 2-(3,4-dichlorobenzyl)-9-hydroxy-1,8-dioxo-1,3,4,8-tetrahydro-2H-pyrido[1,2-a]pyrazine-4-carboxylic acid], 10 to 100 nM. Turning to `COCc1cc(=O)c(O)c2n1CCN(Cc1ccc(Cl)c(Cl)c1)C2=O` [Example 23, 2-(3,4-dichlorobenzyl)-9-hydroxy-6-methoxymethyl-3,4-dihydro-2H-pyrido[1,2-a]pyrazine-1,8-dione], the half-maximal inhibitory concentration (IC50) was in the range of 10 to 100 nM. For the compound `CN(C)C(=O)c1cc(=O)c(O)c2n1CCN(Cc1ccc(Cl)c(Cl)c1)C2=O` [Example 24, N,N-dimethyl-2-(3,4-dichlorobenzyl)-9-hydroxy-1,8-dioxo-1,3,4,8-tetrahydro-2H-pyrido[1,2-a]pyrazine-6-carboxamide], the 50% inhibitory concentration (IC50) lay within 10 to 100 nM.

Take `O=C1c2c(O)c(=O)ccn2CC(Cc2ccccc2)N1Cc1ccc(Cl)c(Cl)c1` (stereo not drawn) [Example 25, 3-benzyl-2-(3,4-dichlorobenzyl)-9-hydroxy-3,4-dihydro-2H-pyrido[1,2-a]pyrazine-1,8-dione]: the IC50 was in the range of 10 to 100 nM. As to `CCCCC1Cn2ccc(=O)c(O)c2C(=O)N1Cc1ccc(Cl)c(Cl)c1` (stereo not drawn) [Example 26, 3-butyl-2-(3,4-dichlorobenzyl)-9-hydroxy-3,4-dihydro-2H-pyrido[1,2-a]pyrazine-1,8-dione], the half-inhibitory concentration (IC50) is 10 to 100 nM. On to `CN(C)C(=O)C1CN(Cc2ccc(Cl)c(Cl)c2)C(=O)c2c(O)c(=O)ccn21` (stereo not drawn) [Example 27, N,N-dimethyl-2-(3,4-dichlorobenzyl)-9-hydroxy-1,8-dioxo-1,3,4,8-tetrahydro-2H-pyrido[1,2-a]pyrazine-4-carboxamide], for which the IC50 fell in the range of 100 to 1000 nM. As for `O=C1c2c(O)c(=O)ccn2C(CO)CN1Cc1ccc(Cl)c(Cl)c1` (stereo not drawn) [Example 28, 2-(3,4-dichlorobenzyl)-9-hydroxy-4-hydroxymethyl-3,4-dihydro-2H-pyrido[1,2-a]pyrazine-1,8-dione], the figure is 10 to 100 nM.

Values taken from patent publication US7211572B2 (Japan Tobacco Inc., priority 2003, dated 2007).
